Data as given in patent US11332459B2 (TEIJIN PHARMA LIMITED, priority 2017, dated 2022).
Structures can show the parent of a compound that is named as a salt.

Molecular target: T1, human TRPC6 (Homo sapiens, UniProt Q9Y210)
T1 construct: expressed in transfected cells
T1 sequence (Q9Y210 1-931): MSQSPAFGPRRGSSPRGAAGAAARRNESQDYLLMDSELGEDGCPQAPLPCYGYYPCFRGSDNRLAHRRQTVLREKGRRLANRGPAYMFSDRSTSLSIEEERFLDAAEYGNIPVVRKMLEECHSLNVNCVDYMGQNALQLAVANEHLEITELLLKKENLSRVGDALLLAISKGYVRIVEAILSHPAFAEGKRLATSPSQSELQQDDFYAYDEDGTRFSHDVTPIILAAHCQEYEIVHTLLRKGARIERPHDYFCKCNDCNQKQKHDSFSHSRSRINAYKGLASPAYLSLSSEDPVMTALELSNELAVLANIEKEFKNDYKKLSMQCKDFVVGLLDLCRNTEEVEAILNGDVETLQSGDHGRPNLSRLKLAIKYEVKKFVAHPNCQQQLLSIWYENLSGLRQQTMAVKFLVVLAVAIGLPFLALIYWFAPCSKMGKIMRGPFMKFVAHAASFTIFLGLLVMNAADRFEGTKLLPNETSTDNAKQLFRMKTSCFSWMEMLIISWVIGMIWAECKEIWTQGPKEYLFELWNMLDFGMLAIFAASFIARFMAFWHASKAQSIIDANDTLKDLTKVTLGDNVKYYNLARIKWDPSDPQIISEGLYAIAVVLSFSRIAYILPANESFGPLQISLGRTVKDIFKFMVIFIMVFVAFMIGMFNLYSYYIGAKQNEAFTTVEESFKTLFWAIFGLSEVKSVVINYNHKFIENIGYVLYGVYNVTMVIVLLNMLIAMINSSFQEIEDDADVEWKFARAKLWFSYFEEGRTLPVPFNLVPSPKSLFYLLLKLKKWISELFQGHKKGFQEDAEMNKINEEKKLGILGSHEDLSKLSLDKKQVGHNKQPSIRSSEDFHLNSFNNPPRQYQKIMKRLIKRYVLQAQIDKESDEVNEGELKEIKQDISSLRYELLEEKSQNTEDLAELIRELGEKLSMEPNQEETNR
Assay: TRPC6 calcium flux assay (FLIPR, OAG-stimulated calcium influx)
Type: cell-based
Conditions: HEK293 cells stably transfected with human TRPC6, read-out: hTRPC6 Potency
Method: Biological Example 1 TRPC6 Calcium Flux Assay
Potency of TRPC6 (Transient receptor potential channel family C6) inhibitors were measured by their inhibition of Calcium influx trigged by […] (1-Oleoyl-2-acetyl-sn-glycerol, Millipore Sigma, O6754) stimulation on HEK293 cells stablely transfected with human TRPC6 using a FLIPR tetra system. Cells were grown in a humidified environment at 37° C. under 5% CO2 using the growth medium with the following selective reagents (Dulbecco's Modified Eagle's Medium (DMEM) high glucose, 10% Fetal Bovine Serum, 1×PSGlu (penicillin-streptomycin glutamine), 1×NEAA (Non-essential amino acid), 1× Na Pyruvate and 200 ug/ml Hygromycin). For general passage, cells were grown to 70-90% confluency; the media was removed, and the cells were gently washed 2 times with calcium and magnesium free PBS (phosphate-buffered saline). Trypsin (3 mL) was applied for 5 minutes at 37° C. The cells were dislodged by rapping flask against base of a hand and 7 mL of growth medium was added to deactivate trypsin and re-suspend cells. The usual splitting schedule was 1:5 every 2-3 days.
Cells were plated the day before the assay, plating cell density is 1.0-1.5×10^4/25 μl/well in poly-D-lysine (PDL) coated 384-well plates using either multichannel pipettes or multidrop. These cells were first incubated with fluorescence dye at room temperature for 90-120 minutes after they were grown on PDL-coated 384-well black plates overnight (Dye loading buffer 10 ml example: 9 mL assay buffer, 1 mL, 10×PBX signal enhancer, 10 μL Calcium indicator). The cells were incubated with a dose of compounds for 25 minutes before being stimulated with TRPC6 agonist OAG. The OAG solution was prepared by adding OAG into assay buffer (Ca ringer solution base: 10 mM HEPES (4-(2-hydroxyethyl)-1-piperazine-ethanesulfonic acid), 4 mM MgCl2, 120 mM NaCl, 5 mM KCl, pH=7.2 @25° C.)+0.1% BSA+2 mM CaCl2) to the concentration of 0.2 mM/2% DMSO, which achieves a final on cell concentration of 50 uM/0.5% DMSO. 12.5 uL OAG mixture was added and the activation of the TRPC6 channel was measured by the change of intracellular Calcium levels on FLIPR terra system.
Data was acquired by measuring the fluorescent peak signal subtracted from the background during the 180 second imaging frame. Each data point is further normalized to 100% of OAG triggered signal vs. buffer. Table 16 provides the IC50 for each compound, which data is obtained by plotting peak signal over the compound dose.

SMILES | IC50 [nM]
N#Cc1ccc(Cn2c(N3CC[C@@H](F)[C@H](N)C3)nc3cc(Cl)c(C(F)(F)F)cc32)nc1 [Example 127, 6-((2-((3R,4R)-3-amino-4-fluoro-1-piperidinyl)-5-chloro-6-(trifluoromethyl)-1H-benzimidazol-1-yl)methyl)-3-pyridinecarbonitrile] | 0.492
CC1(O)CCN(C(=O)Cn2c(N3CC[C@@H](F)[C@H](N)C3)nc3cc(F)c(F)cc32)C1 (stereo partly drawn) [Example 648, 2-(2-((3R,4R)-3-amino-4-fluoropiperidin-1-yl)-5,6-difluoro-1H-benzo[d]imidazol-1-yl)-1-(3-hydroxy-3-methylpyrrolidin-1-yl)ethanone] | 3350
N#Cc1ccc(Cn2c(N3CC[C@H](F)[C@H](N)C3)nc3ccccc32)nc1 [Example 73, 6-((2-((3R,4S)-3-amino-4-fluoropiperidin-1-yl)-1H-benzo[d]imidazol-1-yl)methyl)nicotinonitrile] | 1.09
Cc1ccc(Cn2c(N3CCC[C@@H](N)C3)nc3ccccc32)cc1 [Example 386, (R)-1-(1-(4-methylbenzyl)-1H-benzo[d]imidazol-2-yl)piperidin-3-amine] | 4260
N#Cc1cnc(Cn2c(N3CC[C@@H](F)[C@H](N)C3)nc3ccc(F)cc32)nc1 [Example 442, 2-((2-((3R,4R)-3-amino-4-fluoropiperidin-1-yl)-6-fluoro-1H-benzo[d]imidazol-1-yl)methyl)pyrimidine-5-carbonitrile] | 0.319
N#Cc1ccc(Cn2c(N3C[C@H]4CC[C@@H](N)[C@H]4C3)nc3ccccc32)nc1 [Example 76, 6-((2-((3aR,4R,6aS)-4-aminohexahydrocyclopenta[c]pyrrol-2(1H)-yl)-1H-benzo[d]imidazol-1-yl)methyl)nicotinonitrile hydrochloride] | 971
N#Cc1ccc(Cn2c(N3CCC(F)(F)[C@H](N)C3)nc3cc(F)c(F)cc32)nc1 [Example 84, (R)-6-((2-(3-amino-4,4-difluoropiperidin-1-yl)-5,6-difluoro-1H-benzo[d]imidazol-1-yl)methyl)nicotinonitrile hydrochloride] | 1.27
N#Cc1ccc(Cn2c(N3CC[C@@H]4CCN[C@@H]4C3)nc3ccccc32)nc1 [Example 24, 6-((2-((3aS,7aS)-hexahydro-1H-pyrrolo[2,3-c]pyridin-6(2H)-yl)-1H-benzo[d]imidazol-1-yl)methyl)nicotinonitrile] | 145
CN(CC(F)(F)F)C(=O)Cn1c(N2CC[C@@H](F)[C@H](N)C2)nc2ccc(F)cc21 [Example 445, 2-(2-((3R,4R)-3-amino-4-fluoropiperidin-1-yl)-6-fluoro-1H-benzo[d]imidazol-1-yl)-N-methyl-N-(2,2,2-trifluoroethyl)acetamide] | 20.8
N[C@@H]1CN(c2nc3cc(F)c(F)cc3n2Cc2ccc(Cl)c(Cl)c2)CC[C@H]1F [Example 359, (3R,4R)-1-(1-(3,4-dichlorobenzyl)-5,6-difluoro-1H-benzimidazol-2-yl)-4-fluoro-3-piperidinamine] | 238
COc1cnc(Cn2c(N3CC[C@@H](F)[C@H](N)C3)nc3ccccc32)nc1 [Example 194, (3R,4R)-4-fluoro-1-(1-((5-methoxypyrimidin-2-yl)methyl)-1H-benzo[d]imidazol-2-yl)piperidin-3-amine] | 14.2
N#Cc1ccc(Cn2c(N3CC[C@H](N)C3)nc3ccccc32)cc1 [Example 166, (S)-4-((2-(3-aminopyrrolidin-1-yl)-1H-benzo[d]imidazol-1-yl)methyl)benzonitrile] | 560
N#Cc1ccc(Cn2c(N3CCC(F)(F)[C@H](N)C3)nc3cc(C(F)(F)F)ccc32)nc1 [Example 109, 6-((2-((3R)-3-amino-4,4-difluoro-1-piperidinyl)-5-(trifluoromethyl)-1H-benzimidazol-1-yl)methyl)-3-pyridinecarbonitrile] | 43.8
N#Cc1ccc(Cn2c(N3CC[C@@H](O)[C@H](N)C3)nc3ccc(Cl)cc32)nc1 [Example 152, 6-((2-((3R,4R)-3-amino-4-hydroxypiperidin-1-yl)-6-chloro-1H-benzo[d]imidazol-1-yl)methyl)nicotinonitrile] | 67.7
CN(C(=O)Cn1c(N2CC[C@@H](F)[C@H](N)C2)nc2cc(F)c(F)cc21)c1nccs1 [Example 501, 2-(2-((3R,4R)-3-amino-4-fluoropiperidin-1-yl)-5,6-difluoro-1H-benzo[d]imidazol-1-yl)-N-methyl-N-(thiazol-2-yl)acetamide] | 6.21
N#Cc1cnc(Cn2c(N3CCC(F)(F)[C@H](N)C3)nc3cc(Cl)ccc32)cn1 [Example 234, (R)-5-((2-(3-amino-4,4-difluoropiperidin-1-yl)-5-chloro-1H-benzo[d]imidazol-1-yl)methyl)pyrazine-2-carbonitrile] | 26.9
N[C@H]1CCCN(c2nc3ccccc3n2Cc2ccc(C(=O)O)cn2)C1 [Example 434, (S)-6-((2-(3-aminopiperidin-1-yl)-1H-benzo[d]imidazol-1-yl)methyl)nicotinic acid] | > 3750
N[C@@H]1CN(c2nc3cc(F)c(F)cc3n2CC(=O)N2CCC(O)CC2)CC[C@H]1F [Example 640, 2-(2-((3R,4R)-3-amino-4-fluoropiperidin-1-yl)-5,6-difluoro-1H-benzo[d]imidazol-1-yl)-1-(4-hydroxypiperidin-1-yl)ethanone] | 809
CCN(C(=O)Cn1c(N2CC[C@@H](F)[C@H](N)C2)nc2cc(F)c(F)cc21)C1CCS(=O)(=O)C1 (mixture of isomers) [Example 527, 2-(2-((3R,4R)-3-amino-4-fluoropiperidin-1-yl)-5,6-difluoro-1H-benzo[d]imidazol-1-yl)-N-(1,1-dioxidotetrahydrothiophen-3-yl)-N-ethylacetamide] | 3010
COc1cc(F)cc2nc(N3CC[C@@H](F)[C@H](N)C3)n(CC(=O)N(C)CC(F)(F)F)c12 [Example 544, 2-(2-((3R,4R)-3-amino-4-fluoropiperidin-1-yl)-5-fluoro-7-methoxy-1H-benzo[d]imidazol-1-yl)-N-methyl-N-(2,2,2-trifluoroethyl)acetamide] | > 3750
N#Cc1ccc(Cn2c(N3CC[C@H](F)[C@H](N)C3)nc3ccccc32)cc1 [Example 172, 4-((2-((3R,4S)-3-amino-4-fluoropiperidin-1-yl)-1H-benzo[d]imidazol-1-yl)methyl)benzonitrile] | 2.22
CN[C@H]1CCCN(c2nc3ccc(C(F)(F)F)cc3n2Cc2ccc(C#N)cn2)C1 [Example 139, 6-((2-((3S)-3-(methylamino)-1-piperidinyl)-6-(trifluoromethyl)-1H-benzimidazol-1-yl)methyl)-3-pyridinecarbonitrile] | 1.91
N[C@@H]1CCCN(c2nc3ccccc3n2Cc2ccccc2Cl)C1 [Example 374, (R)-1-(1-(2-chlorobenzyl)-1H-benzo[d]imidazol-2-yl)piperidin-3-amine] | 3410
N[C@@H]1CN(c2nc3cc(C(F)(F)F)ccc3n2Cc2ncc(F)cn2)CC[C@@H]1F [Example 306, (3R,4S)-4-fluoro-1-(1-((5-fluoropyrimidin-2-yl)methyl)-5-(trifluoromethyl)-1H-benzo[d]imidazol-2-yl)piperidin-3-amine] | 1430
